Experimental data: the OPERA property sets (Mansouri et al. 2018)
Converted amounts (≈) assume the structure as drawn.

Row | Structure (SMILES) | solubility | solubility (25 °C) | other results
1 | CCCN(CCC)c1c([N+](=O)[O-])cc(C)cc1[N+](=O)[O-] | 1080 µM (≈ 304 µg/mL) |  | 
2 | CC(Cl)=CCl |  | 24300 µM (≈ 2700 µg/mL) | 
3 | CNc1nc(NC(C)C)nc(OC)n1 |  |  | solubility (21 °C): 17700 µM (≈ 3500 µg/mL)
4 | C/C=C(/C)C(=O)O[C@H]1CC[C@@]2(C)[C@@H]3CC[C@H]4[C@]5(O)C[C@H](O)[C@@]6(O)[C@@H](CN7C[C@@H](C)CC[C@H]7[C@@]6(C)O)[C@]5(O)C[C@@]42O[C@]13O |  | 963 µM (≈ 570 µg/mL) | 
5 | CCOP(=O)(OC=CCl)OCC |  | 46600 µM (≈ 10000 µg/mL) | 
6 | O=c1[nH]cc(Br)c(=O)[nH]1 | 4270 µM (≈ 815 µg/mL) |  | 
7 | C=C(C)C(=O)Nc1ccc(Cl)c(Cl)c1 | 36.9 µM (≈ 8.5 µg/mL) |  | 
8 | O=C(NN=C1C=CC(=NO)C=C1)c1ccccc1 | 20.7 µM (≈ 5 µg/mL) |  | 
9 | Cc1nn(-c2ccccc2)c(C)c1N=O |  | 184 µM (≈ 37 µg/mL) | 
10 | COCCNC(=O)CSP(=S)(OC)OC | 73200 µM (≈ 20000 µg/mL) |  | 
11 | c1cc[n+]2c(c1)-c1cccc[n+]1CC2 |  |  | solubility (20 °C): 376 µM
12 | CCOP(=O)(OCC)Oc1cc(C)[nH]n1 | 4270 µM (≈ 1000 µg/mL) |  | 
